Data: US9676780B2, “Piperazine-substituted [1,2,4]triazolo[1,5-C]quinazolin-5-amine compounds with A2A antagonist properties” (MERCK SHARP & DOHME CORP., priority 2012, dated 2017)

Biological target: T1, human A2a receptor (Homo sapiens, UniProt P29274)
T1 construct: purchased Perkin-Elmer RBHA2AM400UA; host or cells: HEK293
Assay: A2a receptor competition binding assay (Scintillation Proximity, tritiated radioligand)
Details: membranes from HEK293 cells expressing the human A2a receptor; 0.5 nM tritiated ligand; SPA beads; one hour at room temperature; read-out: A2a EC50
Experimental: Binding affinities of compounds of the invention for the human A2a receptor were determined in a competition binding assay using Scintillation Proximity technology. […] The beads were then allowed to settle to the bottom of the wells for 1 hr, after which the membrane-associated radioactivity was determined by scintillation counting in a TopCount microplate reader. Ki values were determined using the Cheng-Prusoff equation.
• HEK293 cells expressing the human, rat, dog or monkey adenosine 2a receptor (Purchased from Perkin-Elmer # RBHA2AM400UA). • The Tritiated compound was prepared in-house by MRL Radiochemistry according to published methods. • Wheatgerm agglutinin-coated yttrium silicate SPA beads (GE Healthcare #RPNQ0023). […] This is a 2.5× solution. The final concentration in the assay is 0.5 nM. Calculate the concentration by counting two 5 ul aliquots. Membrane Preparation • Use 0.25 ug of membrane/well. Dilute membranes to 9.7 ug/ml in assay buffer. Treat with 20 ug/ml adenosine deaminase (ADA) for 15 minutes at room temperature to degrade endogenous adenosine. Membrane-Bead Mixture • Use 100 ug/well wheatgerm agglutinin-coated yttrium silicate SPA beads. • Mix ADA-treated membranes and SPA beads together for 30 min prior to assay. […] Incubate for one hour at room temperature with agitation. • Include total binding (assay buffer+1% DMSO) and non-specific binding (CGS15943, 1 uM) wells. Counting • Allow the beads to settle for one hour. • Count in TopCount. Calculations • A curve fitting program (i.e., Prism, Activity Base, Chemcart) is used to determine the EC50.
The Ki value is calculated using the Cheng-Prusoff equation. Ki=EC50/(1+(radioligand concentration/Kd))

T1 sequence (P29274 whole entry): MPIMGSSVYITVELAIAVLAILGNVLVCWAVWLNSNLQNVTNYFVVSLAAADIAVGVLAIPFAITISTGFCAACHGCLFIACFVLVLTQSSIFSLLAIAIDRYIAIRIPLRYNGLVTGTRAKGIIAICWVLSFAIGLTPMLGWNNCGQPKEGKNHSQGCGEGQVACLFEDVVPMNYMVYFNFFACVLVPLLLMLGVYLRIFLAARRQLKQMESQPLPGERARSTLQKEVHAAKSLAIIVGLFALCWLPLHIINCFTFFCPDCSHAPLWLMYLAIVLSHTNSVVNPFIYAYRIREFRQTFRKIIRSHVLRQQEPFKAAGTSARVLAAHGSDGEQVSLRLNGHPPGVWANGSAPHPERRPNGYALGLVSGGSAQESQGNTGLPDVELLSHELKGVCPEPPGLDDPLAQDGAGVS

| SMILES | EC50 [nM] |
| --- | --- |
| COc1cccc2c1nc(N)n1nc(CN3CC(C)N(c4ccccc4)CC3C)nc21 (centres unmarked) [Ex-8] | 21.2 |
| CCn1ccnc1CN1CCN(Cc2nc3c4cccc(OC)c4nc(N)n3n2)C(C)C1 (centres unmarked) [Ex-12] | 88 |
| COc1cccc2c1nc(N)n1nc(CN3CCN(Cc4nc5ccncc5n4C)CC3C)nc21 (centres unmarked) [Ex-13] | 87.1 |
| CCn1cncc1CN1CCN(Cc2nc3c4cccc(OC)c4nc(N)n3n2)C(C)C1 (centres unmarked) [Ex-14] | 52.8 |
| COc1cccc2c1nc(N)n1nc(CN3CCN(Cc4nccs4)CC3C)nc21 (centres unmarked) [Ex-17] | 26.7 |
| COc1cccc2c1nc(N)n1nc(CN3CCN(Cc4ncccc4F)CC3C)nc21 (centres unmarked) [Ex-19] | 29.6 |
| COc1cc(CN2CCN(Cc3nc4c5cccc(OC)c5nc(N)n4n3)C(C)C2)cc(OC)c1 (centres unmarked) [Ex-20] | 51.7 |
| COc1cccc2c1nc(N)n1nc(CN3CCN(Cc4ccc(F)cc4F)CC3C)nc21 (centres unmarked) [Ex-21] | 20.3 |
| COc1cccc2c1nc(N)n1nc(CN3CCN(Cc4cccc(Oc5ccccc5)c4)CC3C)nc21 (centres unmarked) [Ex-22] | 10 |
| COc1cccc2c1nc(N)n1nc(CN3CCN(Cc4ccc(F)c(F)c4)CC3C)nc21 (centres unmarked) [Ex-23] | 17.7 |
| COc1cccc2c1nc(N)n1nc(CN3CCN(Cc4c(F)cccc4F)CC3C)nc21 (centres unmarked) [Ex-24] | 14.4 |
| COc1ccc(CN2CCN(Cc3nc4c5cccc(OC)c5nc(N)n4n3)C(C)C2)cc1F (centres unmarked) [Ex-25] | 34.5 |
| COc1cccc2c1nc(N)n1nc(CN3CCN(Cc4cc(F)cc(F)c4)CC3C)nc21 (centres unmarked) [Ex-26] | 21.8 |
| COc1cccc2c1nc(N)n1nc(CN3CCN(Cc4cccc(Cl)c4F)CC3C)nc21 (centres unmarked) [Ex-27] | 6.8 |
| COc1cccc2c1nc(N)n1nc(CN3CCN(Cc4ccc(F)c(C)c4)CC3C)nc21 (centres unmarked) [Ex-28] | 15.6 |
| COc1cccc2c1nc(N)n1nc(CN3CCN(Cc4ccc(N5CCCC5)cc4)CC3C)nc21 (centres unmarked) [Ex-31] | 49.1 |
| COc1cccc2c1nc(N)n1nc(CN3CCN(Cc4ccc(N(C)C)cc4)CC3C)nc21 (centres unmarked) [Ex-32] | 78.3 |
| COc1cccc2c1nc(N)n1nc(CN3CCN(Cc4ccc(N5CCCC5=O)cc4)CC3C)nc21 (centres unmarked) [Ex-33] | 35.9 |
| COc1cccc2c1nc(N)n1nc(CN3CCN(Cc4cc(C)ccc4C)CC3C)nc21 (centres unmarked) [Ex-36] | 18.1 |
| COc1cc(F)cc2c1nc(N)n1nc(CN3CCN(c4ccc(F)cn4)CC3C)nc21 (centres unmarked) [Ex-41] | 18.1 |
| COc1cc(F)cc2c1nc(N)n1nc(CN3CCN(c4ccc(C(F)(F)F)cn4)CC3C)nc21 (centres unmarked) [Ex-42] | 28.3 |
| COc1cccc2c1nc(N)n1nc(CN3CCN(c4ccc(F)cc4)C[C@H]3C3CC3)nc21 [Ex-43] | 2.11 |
| COc1cccc2c1nc(N)n1nc(CN3CCN(c4ccc(F)cc4)C[C@H]3C(C)C)nc21 [Ex-44] | 3.6 |
| CC[C@@H]1CN(c2ccc(F)cc2)CCN1Cc1nc2c3cccc(OC)c3nc(N)n2n1 [Ex-45] | 5.7 |
| COc1cccc2c1nc(N)n1nc(CN3CCN(c4ccccc4C(F)(F)F)CC3C)nc21 (centres unmarked) [Ex-47] | 59.2 |
| COc1cccc2c1nc(N)n1nc(CN3CCN(c4ccc(C(F)(F)F)cc4)CC3C)nc21 (centres unmarked) [Ex-48] | 18.2 |
| COc1cccc2c1nc(N)n1nc(C(C)N3CCN(c4ccc(F)cc4)C[C@H]3C)nc21 (stereo partly drawn) [Ex-50, 2-{1-[(2R)-4-(4-fluorophenyl)-2-methylpiperazin-1-yl]ethyl}-7-methoxy[1,2,4]triazolo[1,5-c]quinazolin-5-amine] | 139 |

| SMILES | EC50 [nM] |
| --- | --- |
| COc1cccc2c1nc(N)n1nc(CN3CCN(c4nccs4)CC3C)nc21 (centres unmarked) [Ex-51] | 73.8 |
| COc1cccc2c1nc(N)n1nc(CN3CCN(c4noc(C)n4)CC3C)nc21 (centres unmarked) [Ex-52] | 48.5 |
| COc1cccc2c1nc(N)n1nc(CN3CCN(c4nnn[nH]4)CC3C)nc21 (centres unmarked) [Ex-54] | 106 |
| COc1cccc2c1nc(N)n1nc(CN3CCN(c4cccc(C(F)(F)F)c4)C[C@H]3C)nc21 [Ex-55] | 5.2 |
| COc1cccc2c1nc(N)n1nc(CN3CCN(c4ccccc4Cl)CC3C)nc21 (centres unmarked) [Ex-58] | 12.4 |
| COc1cccc2c1nc(N)n1nc(CN3CCN(c4ccc5ncccc5c4)CC3C)nc21 (centres unmarked) [Ex-63] | 1.44 |
| COc1cccc2c1nc(N)n1nc(CN3CCN(c4cccc(C)c4)CC3C)nc21 (centres unmarked) [Ex-65] | 7 |
| COc1cccc2c1nc(N)n1nc(CN3CCN(c4ccc(C)cc4)CC3C)nc21 (centres unmarked) [Ex-66] | 3 |
| COc1cccc2c1nc(N)n1nc(CN3CCN(c4cccc5ccccc45)CC3C)nc21 (centres unmarked) [Ex-71] | 11.5 |
| COc1cccc2c1nc(N)n1nc(CN3CCN(c4nncs4)CC3C)nc21 (centres unmarked) [Ex-75] | 47.4 |
| COc1cccc2c1nc(N)n1nc(CN3CCN(c4noc(C(C)C)n4)CC3C)nc21 (centres unmarked) [Ex-80] | 19.4 |
| COc1cccc2c1nc(N)n1nc(CN3CCN(c4ncc(C(=O)O)s4)CC3C)nc21 (centres unmarked) [Ex-81] | 68.2 |
| COc1cccc2c1nc(N)n1nc(CN3CCN(c4noc(=O)[nH]4)CC3C)nc21 (centres unmarked) [Ex-82] | 628 |
| COc1cccc2c1nc(N)n1nc(CN3CCN(c4noc(C(F)(F)F)n4)CC3C)nc21 (centres unmarked) [Ex-83] | 47.6 |
| COc1cccc2c1nc(N)n1nc(CN3CCN(c4nnc(C)[nH]4)CC3C)nc21 (centres unmarked) [Ex-84] | 57.2 |
| CCc1nc(N2CCN(Cc3nc4c5cccc(OC)c5nc(N)n4n3)C(C)C2)no1 (centres unmarked) [Ex-87] | 21.5 |
| COc1cccc2c1nc(N)n1nc(CN3CCN(c4noc(C(C)(C)C)n4)CC3C)nc21 (centres unmarked) [Ex-88] | 22.2 |
| COc1cccc2c1nc(N)n1nc(CN3CCN(C(=O)c4nc(C5CC5)no4)CC3C)nc21 (centres unmarked) [Ex-90] | 53.5 |
| COc1cccc2c1nc(N)n1nc(CN3CCN(c4nc(C(C)(C)C)no4)CC3C)nc21 (centres unmarked) [Ex-91] | 42.2 |
| COc1cccc2c1nc(N)n1nc(CN3CCN(C(C)c4ccc(F)cc4F)CC3C)nc21 (centres unmarked) [Ex-92] | 5.2 |
| COCCOc1ccc(N2CCN(Cc3nc4c5cccc(OC)c5nc(N)n4n3)C(C)C2)cc1 (centres unmarked) [Ex-94] | 1.85 |
| COc1cccc2c1nc(N)n1nc(CN3CCN(c4ccc(F)cc4F)CC3C)nc21 (centres unmarked) [Ex-95] | 3.1 |
| COc1cc(F)ccc1N1CCN(Cc2nc3c4cccc(OC)c4nc(N)n3n2)C(C)C1 (centres unmarked) [Ex-96] | 3.41 |
| COc1cccc2c1nc(N)n1nc(CN3CCN(c4ccnc(C(F)(F)F)c4)CC3C)nc21 (centres unmarked) [Ex-97] | 18.2 |
| COc1cccc2c1nc(N)n1nc(CN3CCN(c4cc(C)ccn4)CC3C)nc21 (centres unmarked) [Ex-98] | 39.7 |
| COc1cccc2c1nc(N)n1nc(CN3CCN(c4cccc(C)n4)CC3C)nc21 (centres unmarked) [Ex-99] | 46.3 |
| COc1cccc2c1nc(N)n1nc(CN3CCN(c4ccncc4C(F)(F)F)CC3C)nc21 (centres unmarked) [Ex-100] | 29.4 |

The remaining compounds from weak to strong by EC50, led by results:

| EC50 [nM] | SMILES |
| --- | --- |
| 190 | COc1cccc2c1nc(N)n1nc(CN3CCN(C)CC3c3ccccc3)nc21 (centres unmarked) [Ex-3] |
| 72.2 | COc1cccc2c1nc(N)n1nc(CN3CCN(c4ncns4)CC3C)nc21 (centres unmarked) [Ex-89] |
| 50.2 | CCC1CN(C(=O)c2ccc(F)cc2)CC(C)N1Cc1nc2c3cccc(OC)c3nc(N)n2n1 (centres unmarked) [Ex-46] |
| 48.9 | COc1cc(F)cc2c1nc(N)n1nc(CN3CCN(c4ccc(F)cc4)CC3C)nc21 (centres unmarked) [Ex-37] |
| 36.5 | COc1cccc2c1nc(N)n1nc(CN3CCN(Cc4ncco4)CC3C)nc21 (centres unmarked) [Ex-16] |
| 31.8 | COc1cccc2c1nc(N)n1nc(CN3CCN(c4nnc(C)s4)CC3C)nc21 (centres unmarked) [Ex-74] |
| 30.9 | COc1cccc2c1nc(N)n1nc(CN3CCN(c4ccccc4C#N)CC3C)nc21 (centres unmarked) [Ex-59] |
| 26.9 | COc1cccc2c1nc(N)n1nc(CN3CCN(Cc4cccc(C)n4)CC3C)nc21 (centres unmarked) [Ex-18] |
| 22.6 | COc1cccc2c1nc(N)n1nc(CN3CCN(c4ccc(C(F)(F)F)cn4)CC3C)nc21 (centres unmarked) [Ex-40] |
| 21.1 | COCc1nc(N2CCN(Cc3nc4c5cccc(OC)c5nc(N)n4n3)C(C)C2)no1 (centres unmarked) [Ex-79] |
| 18.8 | COc1cccc2c1nc(N)n1nc(CN3CCN(c4cccc(C#N)c4)CC3C)nc21 (centres unmarked) [Ex-60] |
| 18.6 | COc1cccc2c1nc(N)n1nc(CN3CCN(Cc4ccc(F)c(F)c4F)CC3C)nc21 (centres unmarked) [Ex-29] |
| 18.5 | COc1cccc2c1nc(N)n1nc(CN3CCN(c4ccc(Cl)cc4)C[C@@H]3C)nc21 [Ex-34] |
| 15.9 | COc1cccc2c1nc(N)n1nc(CN3CCN(c4noc(C5CC5)n4)CC3C)nc21 (centres unmarked) [Ex-53] |
| 13.1 | COc1cccc2c1nc(N)n1nc(CN3CCN(c4ccccc4C)CC3C)nc21 (centres unmarked) [Ex-64] |
| 11.4 | COc1cccc2c1nc(N)n1nc(CN3CCN(c4ccc(C#N)cc4)CC3C)nc21 (centres unmarked) [Ex-61] |
| 9.2 | COc1cccc2c1nc(N)n1nc(CN3CCN(Cc4cc(F)c(F)cc4F)CC3C)nc21 (centres unmarked) [Ex-30] |
| 8.1 | COc1cccc2c1nc(N)n1nc(CN3CCN(Cc4c(C)nc5scnn45)CC3C)nc21 (centres unmarked) [Ex-15] |
| 7.68 | COc1cc(F)cc2c1nc(N)n1nc(CN3CCN(c4ccc(F)cc4)CC3C)nc21 (centres unmarked) [Ex-11] |
| 6.7 | COc1cccc2c1nc(N)n1nc(CN3CCN(c4ccc5ccccc5c4)CC3C)nc21 (centres unmarked) [Ex-72] |
| 4.9 | COc1cccc2c1nc(N)n1nc(C(C)N3CCN(c4ccc(F)cc4)CC3C)nc21 (centres unmarked) [Ex-49] |
| 4.6 | COc1cccc2c1nc(N)n1nc(CN3CCN(C(C)c4ccc(F)cc4F)CC3C)nc21 (centres unmarked) [Ex-93] |
| 3.7 | COc1cccc2c1nc(N)n1nc(CN3CCN(c4ccc(Cl)cc4)C[C@H]3C)nc21 [Ex-35] |
